Assay results taken from article PMC5218480 (PLoS ONE, 2017).

System: MV-4-11 cells
Assay: Gene expression microarray analysis (Affymetrix PrimeView) and GSEA
Format: cell-based, human
Parameters: RFU PODN (11730768_x_at) / Fold change /veh PODN (11730768_x_at) / RFU LINC00158 (11744669_a_at) / Fold change /veh LINC00158 (11744669_a_at) / RFU DUSP10 (11751237_a_at) / Fold change /veh DUSP10 (11751237_a_at) / RFU ID3 (11757404_x_at) / Fold change /veh ID3 (11757404_x_at) / RFU PLEKHG5 (11737974_s_at) / Fold change /veh PLEKHG5 (11737974_s_at) / RFU LRRC4B (11730491_at) / Fold change /veh LRRC4B (11730491_at) / RFU GIMAP4 (11747438_a_at) / Fold change /veh GIMAP4 (11747438_a_at) / RFU KRT8 (11758183_x_at) / Fold change /veh KRT8 (11758183_x_at) / RFU CNN1 (11734310_a_at) / Fold change /veh CNN1 (11734310_a_at) / RFU VPS37D (11726825_at) / Fold change /veh VPS37D (11726825_at) / RFU C10orf10 (11716522_x_at) / Fold change /veh C10orf10 (11716522_x_at) / RFU KIR2DL2 /// KIR2DL4 /// KIR2DL5A /// KIR2DL5B /// KIR2DS1 /// KIR2DS2 /// KIR2DS3 /// KIR2DS4 /// KIR3DL3 /// KIR3DL3 /// KIR3DS1 (11738374_at) / Fold change /veh KIR2DL2 /// KIR2DL4 /// KIR2DL5A /// KIR2DL5B /// KIR2DS1 /// KIR2DS2 /// KIR2DS3 /// KIR2DS4 /// KIR3DL3 /// KIR3DL3 /// KIR3DS1 (11738374_at) / RFU C1QL1 (11718748_at) / Fold change /veh C1QL1 (11718748_at) / RFU TMPRSS4 (11747572_a_at) / Fold change /veh TMPRSS4 (11747572_a_at) / RFU HAMP (11756126_x_at) / Fold change /veh HAMP (11756126_x_at) / RFU RNFT2 (11725882_a_at) / Fold change /veh RNFT2 (11725882_a_at) / RFU NR4A2 (11747474_a_at) / Fold change /veh NR4A2 (11747474_a_at) / RFU ABCC12 (11746883_a_at) / Fold change /veh ABCC12 (11746883_a_at) / RFU TMEM136 (11760407_x_at) / Fold change /veh TMEM136 (11760407_x_at) / RFU CLDN22 /// WWC2 (11732394_at) / Fold change /veh CLDN22 /// WWC2 (11732394_at) / RFU HLA-DPB1 (11760878_x_at) / Fold change /veh HLA-DPB1 (11760878_x_at) / RFU SPINT1 (11716480_a_at) / Fold change /veh SPINT1 (11716480_a_at) / RFU GAP43 (11754022_s_at) / Fold change /veh GAP43 (11754022_s_at) / RFU A4GNT (11735810_at) / Fold change /veh A4GNT (11735810_at) / RFU PRB3 (11715151_x_at) / Fold change /veh PRB3 (11715151_x_at) / RFU TUBB4B (11761932_at) / Fold change /veh TUBB4B (11761932_at) / RFU CAPN14 (11732068_a_at) / Fold change /veh CAPN14 (11732068_a_at) / RFU TMCC2 (11721928_a_at) / Fold change /veh TMCC2 (11721928_a_at) / RFU IRGQ (11745062_a_at) / Fold change /veh IRGQ (11745062_a_at) / RFU FAM174B (11720279_a_at) / Fold change /veh FAM174B (11720279_a_at) / RFU TMPRSS4 (11748680_a_at) / Fold change /veh TMPRSS4 (11748680_a_at) / RFU FAM212B (11763350_a_at) / Fold change /veh FAM212B (11763350_a_at) / RFU PLEKHG5 (11743358_a_at) / Fold change /veh PLEKHG5 (11743358_a_at) / RFU ZSCAN30 (11745921_a_at) / Fold change /veh ZSCAN30 (11745921_a_at) / RFU CMKLR1 (11741424_a_at) / Fold change /veh CMKLR1 (11741424_a_at) / RFU LOC101060620 /// MAPK8IP1 (11723275_at) / Fold change /veh LOC101060620 /// MAPK8IP1 (11723275_at) / RFU SPTSSB (11747773_x_at) / Fold change /veh SPTSSB (11747773_x_at) / RFU PRSS12 (11739890_at) / Fold change /veh PRSS12 (11739890_at) / RFU BIN1 (11741810_x_at) / Fold change /veh BIN1 (11741810_x_at) / RFU WNT11 (11732464_a_at) / Fold change /veh WNT11 (11732464_a_at) / RFU C10orf10 (11716521_a_at) / Fold change /veh C10orf10 (11716521_a_at) / RFU C5orf56 (11738089_at) / Fold change /veh C5orf56 (11738089_at) / RFU CYB561 (11721691_x_at) / Fold change /veh CYB561 (11721691_x_at) / RFU ANKRD19P (11752326_a_at) / Fold change /veh ANKRD19P (11752326_a_at) / RFU OR2T12 /// OR2T33 /// OR2T8 (11738714_s_at) / Fold change /veh OR2T12 /// OR2T33 /// OR2T8 (11738714_s_at) / RFU VCAN (11748164_a_at) / Fold change /veh VCAN (11748164_a_at) / RFU JSRP1 (11732532_at) / Fold change /veh JSRP1 (11732532_at) / RFU KRTAP10-11 (11738290_x_at) / Fold change /veh KRTAP10-11 (11738290_x_at) / RFU MYO3A (11730013_a_at) / Fold change /veh MYO3A (11730013_a_at) / RFU EBF3 (11725865_a_at) / Fold change /veh EBF3 (11725865_a_at) / RFU CAMK2N1 (11719241_x_at) / Fold change /veh CAMK2N1 (11719241_x_at) / RFU C5orf56 (11738088_a_at) / Fold change /veh C5orf56 (11738088_a_at) / RFU OLFML3 (11715873_a_at) / Fold change /veh OLFML3 (11715873_a_at) / RFU LOC100653217 /// NTM (11731650_a_at) / Fold change /veh LOC100653217 /// NTM (11731650_a_at) / RFU MAPK11 (11762145_a_at) / Fold change /veh MAPK11 (11762145_a_at) / RFU FIZ1 (11724087_x_at) / Fold change /veh FIZ1 (11724087_x_at) / RFU OASL (11726364_x_at) / Fold change /veh OASL (11726364_x_at) / RFU SOX15 (11748057_x_at) / Fold change /veh SOX15 (11748057_x_at) / RFU CD79A (11719716_a_at) / Fold change /veh CD79A (11719716_a_at) / RFU HIST1H1D (11736915_at) / Fold change /veh HIST1H1D (11736915_at) / RFU CASKIN2 (11723855_a_at) / Fold change /veh CASKIN2 (11723855_a_at) / RFU LOC730098 (11760151_x_at) / Fold change /veh LOC730098 (11760151_x_at) / RFU OR4N2 (11742367_at) / Fold change /veh OR4N2 (11742367_at) / RFU PRRT2 (11749266_a_at) / Fold change /veh PRRT2 (11749266_a_at) / RFU SNX32 (11753110_a_at) / Fold change /veh SNX32 (11753110_a_at) / RFU CDHR5 (11726645_a_at) / Fold change /veh CDHR5 (11726645_a_at) / RFU RCAN1 (11760418_a_at) / Fold change /veh RCAN1 (11760418_a_at) / RFU FAM167A (11723789_a_at) / Fold change /veh FAM167A (11723789_a_at) / RFU FAM26E (11764081_at) / Fold change /veh FAM26E (11764081_at) / RFU ISYNA1 (11749810_s_at) / Fold change /veh ISYNA1 (11749810_s_at) / RFU ACY1 (11761880_at) / Fold change /veh ACY1 (11761880_at) / RFU 11764098_at / Fold change /veh 11764098_at / RFU SAMD14 (11745864_x_at) / Fold change /veh SAMD14 (11745864_x_at) / RFU NPB (11741838_a_at) / Fold change /veh NPB (11741838_a_at) / RFU TMPRSS6 (11731388_a_at) / Fold change /veh TMPRSS6 (11731388_a_at) / RFU KRTAP10-2 (11738614_at) / Fold change /veh KRTAP10-2 (11738614_at) / RFU ARHGAP8 /// PRR5-ARHGAP8 (11727945_x_at) / Fold change /veh ARHGAP8 /// PRR5-ARHGAP8 (11727945_x_at) / RFU KRTAP5-7 /// NADSYN1 (11734609_at) / Fold change /veh KRTAP5-7 /// NADSYN1 (11734609_at) / RFU RASL12 (11751679_a_at) / Fold change /veh RASL12 (11751679_a_at) / RFU CDKN2B (11736163_a_at) / Fold change /veh CDKN2B (11736163_a_at) / RFU PRF1 (11729649_at) / Fold change /veh PRF1 (11729649_at) / RFU, ZNF638 /// ZNF638-IT1 / Fold change vs veh, ZNF638 /// ZNF638-IT1 / RFU, PANK3 / Fold change vs veh, PANK3 / RFU, SH3YL1 / Fold change vs veh, SH3YL1 / RFU, ZEB2 / Fold change vs veh, ZEB2 / RFU, NRIP1 / Fold change vs veh, NRIP1 / RFU, PTTG1IP / Fold change vs veh, PTTG1IP / RFU, CAPN2 / Fold change vs veh, CAPN2 / RFU, MED14 / Fold change vs veh, MED14 / RFU, SNORA58 / Fold change vs veh, SNORA58 / RFU, C1orf63 / Fold change vs veh, C1orf63 / RFU, LRRFIP1 / Fold change vs veh, LRRFIP1 / RFU, NDUFAF7 / Fold change vs veh, NDUFAF7 / RFU, SLC12A2 / Fold change vs veh, SLC12A2 / RFU, IBTK / Fold change vs veh, IBTK / RFU, ESF1 / Fold change vs veh, ESF1 / Fold change vs veh, TMEM50B / RFU, TAOK1 / Fold change vs veh, TAOK1 / RFU, ACBD3 / Fold change vs veh, ACBD3 / RFU, TMA16 / Fold change vs veh, TMA16 / RFU, RWDD3 / Fold change vs veh, RWDD3 / RFU, BCAT1 / Fold change vs veh, BCAT1 / RFU, EDEM3 / Fold change vs veh, EDEM3 / RFU, TMEM33 / Fold change vs veh, TMEM33 / RFU, WDR75 / Fold change vs veh, WDR75 / RFU, AHCTF1 / Fold change vs veh, AHCTF1 / RFU, TFRC / Fold change vs veh, TFRC / RFU, ZDHHC17 / Fold change vs veh, ZDHHC17 / RFU, NOM1 / Fold change vs veh, NOM1 / RFU, ARL8B / Fold change vs veh, ARL8B / RFU, ZBTB11 / Fold change vs veh, ZBTB11 / RFU, TAMM41 / Fold change vs veh, TAMM41 / RFU, KIAA1704 /// LOC100996395 / Fold change vs veh, KIAA1704 /// LOC100996395 / RFU, ING1 / Fold change vs veh, ING1 / RFU, TRMT61B / Fold change vs veh, TRMT61B / RFU, FUBP3 / Fold change vs veh, FUBP3 / RFU, TP53 / Fold change vs veh, TP53 / RFU, TNKS2 / Fold change vs veh, TNKS2 / RFU, ZFP14 / Fold change vs veh, ZFP14 / RFU, ACTR2 / Fold change vs veh, ACTR2 / RFU, PPP3R1 / Fold change vs veh, PPP3R1 / RFU, PIK3R1 / Fold change vs veh, PIK3R1 / RFU, HNRNPA1 / Fold change vs veh, HNRNPA1 / RFU, RNF170 / Fold change vs veh, RNF170 / RFU, ZNF28 / Fold change vs veh, ZNF28 / RFU, RNGTT / Fold change vs veh, RNGTT / RFU, OGT / Fold change vs veh, OGT / RFU, BRD1 / Fold change vs veh, BRD1 / RFU, MARS / Fold change vs veh, MARS / RFU, ZNF655 / Fold change vs veh, ZNF655 / RFU, FAHD1 / Fold change vs veh, FAHD1 / RFU, BDP1 / Fold change vs veh, BDP1 / RFU, LRRCC1 / Fold change vs veh, LRRCC1 / RFU, ARID1A / Fold change vs veh, ARID1A / RFU, ZNF146 / Fold change vs veh, ZNF146 / RFU, ZNF330 / Fold change vs veh, ZNF330 / RFU, GPN3 / Fold change vs veh, GPN3 / RFU, C9orf123 / Fold change vs veh, C9orf123 / RFU, N4BP2L2 / Fold change vs veh, N4BP2L2 / RFU, ARFIP1 / Fold change vs veh, ARFIP1 / RFU, FAM179B / Fold change vs veh, FAM179B / RFU, BCL10 / Fold change vs veh, BCL10 / RFU, UHRF1BP1L / Fold change vs veh, UHRF1BP1L / RFU, BET1 / Fold change vs veh, BET1 / RFU, CNOT2 / Fold change vs veh, CNOT2 / RFU, ZNF268 / Fold change vs veh, ZNF268 / Fold change vs veh, ZNF507 / RFU, DGCR2 / Fold change vs veh, DGCR2 / RFU, WDSUB1 / Fold change vs veh, WDSUB1 / Fold change vs veh, HSP90B1 /// MIR3652 / RFU, ADSS / Fold change vs veh, ADSS / RFU, GK / Fold change vs veh, GK / RFU, ZNF148 / Fold change vs veh, ZNF148 / RFU, TAF9 / Fold change vs veh, TAF9 / RFU, SLC1A5 / Fold change vs veh, SLC1A5 / RFU, SLMO2 / Fold change vs veh, SLMO2 / RFU, ABCC4 / Fold change vs veh, ABCC4 / RFU, LOC101060439 /// RAP1B / Fold change vs veh, LOC101060439 /// RAP1B / RFU, RFX7 / Fold change vs veh, RFX7 / RFU, GTPBP10 / Fold change vs veh, GTPBP10 / RFU, CNEP1R1 / Fold change vs veh, CNEP1R1 / RFU, BIVM-ERCC5 /// ERCC5 / Fold change vs veh, BIVM-ERCC5 /// ERCC5 / RFU, ILF3 / Fold change vs veh, ILF3 / RFU 11762660_at / Fold change /veh 11762660_at / RFU VCAN (11757783_s_at) / Fold change /veh VCAN (11757783_s_at) / RFU DDX43 (11728927_at) / Fold change /veh DDX43 (11728927_at) / RFU KRT8 (11758188_x_at) / Fold change /veh KRT8 (11758188_x_at) / RFU NKD1 (11759106_at) / Fold change /veh NKD1 (11759106_at) / RFU SRD5A1 (11742802_a_at) / Fold change /veh SRD5A1 (11742802_a_at) / RFU TPSAB1 /// TPSB2 (11721975_s_at) / Fold change /veh TPSAB1 /// TPSB2 (11721975_s_at) / RFU GSTM3 (11746129_a_at) / Fold change /veh GSTM3 (11746129_a_at) / RFU IL23R (11737362_x_at) / Fold change /veh IL23R (11737362_x_at) / RFU TMEM51 (11727254_a_at) / Fold change /veh TMEM51 (11727254_a_at) / RFU PIWIL2 (11732686_x_at) / Fold change /veh PIWIL2 (11732686_x_at) / RFU ORM1 (11744905_x_at) / Fold change /veh ORM1 (11744905_x_at) / RFU CCDC152 (11743942_at) / Fold change /veh CCDC152 (11743942_at) / RFU ECM1 (11717891_a_at) / Fold change /veh ECM1 (11717891_a_at) / RFU IL23R (11748794_a_at) / Fold change /veh IL23R (11748794_a_at) / RFU TNFAIP8L3 (11732012_x_at) / Fold change /veh TNFAIP8L3 (11732012_x_at) / RFU MBOAT4 (11741988_at) / Fold change /veh MBOAT4 (11741988_at) / RFU 11764193_at / Fold change /veh 11764193_at / RFU TMEM53 (11763286_at) / Fold change /veh TMEM53 (11763286_at) / RFU MAGEB2 (11727129_at) / Fold change /veh MAGEB2 (11727129_at) / RFU TMEM200A (11744735_a_at) / Fold change /veh TMEM200A (11744735_a_at) / RFU CCDC152 (11751479_a_at) / Fold change /veh CCDC152 (11751479_a_at) / RFU FAM211A (11726209_a_at) / Fold change /veh FAM211A (11726209_a_at) / RFU RGS16 (11746705_a_at) / Fold change /veh RGS16 (11746705_a_at) / RFU VCAN (11755009_s_at) / Fold change /veh VCAN (11755009_s_at) / RFU RHOB (11743442_s_at) / Fold change /veh RHOB (11743442_s_at) / RFU RGS16 (11720943_a_at) / Fold change /veh RGS16 (11720943_a_at) / RFU RGS16 (11720944_at) / Fold change /veh RGS16 (11720944_at) / RFU, VPS4B / Fold change vs veh, VPS4B / RFU, CREB1 / Fold change vs veh, CREB1 / RFU, DNAJC13 / Fold change vs veh, DNAJC13 / RFU, GNAQ / Fold change vs veh, GNAQ / RFU, CDK5R1 / Fold change vs veh, CDK5R1 / RFU, ZRANB3 / Fold change vs veh, ZRANB3 / RFU, CUL4A / Fold change vs veh, CUL4A / RFU, CCNY / Fold change vs veh, CCNY / RFU, UFL1 / Fold change vs veh, UFL1 / RFU, COG3 / Fold change vs veh, COG3 / RFU, DIAPH2 / Fold change vs veh, DIAPH2 / RFU, SKA2 / Fold change vs veh, SKA2 / RFU, AFF3 / Fold change vs veh, AFF3 / RFU, LMF1 / Fold change vs veh, LMF1 / RFU, IPO11 / Fold change vs veh, IPO11 / RFU, DFFB / Fold change vs veh, DFFB / RFU, FOXP1 / Fold change vs veh, FOXP1 / RFU, CARD8 / Fold change vs veh, CARD8 / RFU, STRN3 / Fold change vs veh, STRN3 / RFU, ADK / Fold change vs veh, ADK / RFU, RASSF2 / Fold change vs veh, RASSF2 / RFU, WIPF1 / Fold change vs veh, WIPF1 / RFU, LARP1B / Fold change vs veh, LARP1B / RFU, RASA1 / Fold change vs veh, RASA1 / RFU, RB1 / Fold change vs veh, RB1 / RFU, PPFIA1 / Fold change vs veh, PPFIA1 / RFU, MAT2A / Fold change vs veh, MAT2A / RFU, CCT5 / Fold change vs veh, CCT5 / RFU, WDR92 / Fold change vs veh, WDR92 / RFU, CUX1 / Fold change vs veh, CUX1 / RFU, TTC7A / Fold change vs veh, TTC7A / RFU, TMEM135 / Fold change vs veh, TMEM135 / RFU, DEPTOR / Fold change vs veh, DEPTOR / RFU, CPM / Fold change vs veh, CPM / RFU, DNAJB6 / Fold change vs veh, DNAJB6 / RFU, CACNA2D3 / Fold change vs veh, CACNA2D3 / RFU, DTX4 / Fold change vs veh, DTX4 / RFU, TFCP2 / Fold change vs veh, TFCP2 / RFU, GMCL1 /// GMCL1P1 / Fold change vs veh, GMCL1 /// GMCL1P1 / RFU, AEBP2 / Fold change vs veh, AEBP2 / RFU, SNHG1 /// SNORD22 /// SNORD25 /// SNORD26 /// SNORD27 /// SNORD28 /// SNORD29 /// SNORD31 / Fold change vs veh, SNHG1 /// SNORD22 /// SNORD25 /// SNORD26 /// SNORD27 /// SNORD28 /// SNORD29 /// SNORD31 / Fold change (Aza/veh), C12orf56 (ProbeSet 11735607_a_at) / Fold change (ACY-1035/veh), C12orf56 (ProbeSet 11735607_a_at) / Fold change (Aza/veh), FGFR1OP (ProbeSet 11751329_s_at) / Fold change (ACY-1035/veh), FGFR1OP (ProbeSet 11751329_s_at) / Fold change (Aza/veh), VPS36 (ProbeSet 11739960_a_at) / Fold change (ACY-1035/veh), VPS36 (ProbeSet 11739960_a_at) / RFU SYPL1 (11715823_x_at) / Fold change /veh SYPL1 (11715823_x_at) / RFU IGFBP7 (11715501_s_at) / Fold change /veh IGFBP7 (11715501_s_at) / RFU REEP3 (11722064_at) / Fold change /veh REEP3 (11722064_at) / RFU IGLL1 (11728026_x_at) / Fold change /veh IGLL1 (11728026_x_at): dose or concentration left out as unconfirmed
Settings: ProbeSet 11759094_a_at; LIST D

Nc1ncn([C@@H]2O[C@H](CO)[C@@H](O)[C@H]2O)c(=O)n1 [azacitidine]
Fold change vs veh, GNAQ: 0.76
